SMILES strings stand for the structures. The source made the active and inactive calls.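 The calls were made as follows: active = parasite count per well reduced by over 3 SD from the mean, with host cell number above 80% of untreated; inactive = the rest.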

This assay deals with L. donovani amastigotes in THP-1 macrophages, DAPI imaging, 72 h. Briefly: antileishmanial activity in infected macrophages – imaging, THP-1 host macrophages, single concentration (AID 977614).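 Also: signal is the parasite per host cell ratio from DAPI stained kinetoplasts and nuclei.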
Broadly, the AC50 is the midpoint of the concentration-response curve, whichever way the signal moves. `O=C(NC[C@@H]1N[C@@H](CO)[C@@H]1c1ccc(-c2ccccc2F)cc1)c1ccccn1`: the AC50 is > 10 µM (inactive).
Turning to `COc1ccccc1CN1[C@@H]2CN(C(=O)C3CCOCC3)c3ccccc3[C@@H]2[C@@H]1CO`, the AC50 was > 10 µM (inactive).
Turning to `COCCNC[C@H]1[C@@H](c2ccccc2)[C@@H](CO)N1c1nc(C)c(C)s1`, the AC50 is > 10 µM (inactive).
For `CCCNC(=O)N1[C@@H]2CN(C(=O)c3ccncc3)c3ccccc3[C@@H]2[C@@H]1CO`, the AC50 is > 10 µM (inactive).
With `Cc1cccc(S(=O)(=O)N2C[C@H]3[C@@H](c4ccccc42)[C@@H](CO)N3CC2CCCC2)c1`, the AC50 is > 10 µM (inactive).
With `COc1ccccc1S(=O)(=O)N(C)C[C@@H]1OCc2cn(nn2)CCCC(=O)N([C@@H](C)CO)C[C@@H]1C`, the AC50 is > 10 µM (inactive).
On to `C[C@H](CO)N1C[C@H](C)[C@@H](CN(C)S(=O)(=O)c2cccc(C#N)c2)OCc2cn(nn2)CCCC1=O`, for which the AC50 is > 10 µM (inactive).
On to `COc1ccccc1NC(=O)N1C[C@H]2[C@@H](c3ccccc31)[C@H](CO)N2Cc1ccc2c(c1)OCO2`, for which the AC50 was > 10 µM (inactive).
`CNC[C@H]1OCc2cnnn2CCCC(=O)N([C@@H](C)CO)C[C@@H]1C`: the AC50 was > 10 µM (inactive).
`C[C@H](CO)N1C[C@H](C)[C@H](CN(C)C(=O)Nc2cccc3ccccc23)OCc2cn(nn2)CCCC1=O`: the AC50 was > 10 µM (inactive).
As for `C[C@H](CO)N1C[C@H](C)[C@H](CN(C)C(=O)Nc2ccc3c(c2)OCCO3)OCc2cnnn2CCCC1=O`, the AC50 was > 10 µM (inactive).
As for `C/C=C/c1ccc([C@H]2[C@@H](CO)N(C(=O)C3CC3)[C@H]2CNC(=O)NC(C)C)cc1`, the AC50 was > 10 µM (inactive).
As to `CN(C[C@@H]1[C@@H](c2ccccc2)[C@H](CO)N1Cc1ccccn1)S(C)(=O)=O`, the AC50 was > 10 µM (inactive).
Take `C/C=C/c1ccc([C@@H]2[C@@H](CNC(=O)CC3CC3)N(C(=O)CC)[C@H]2CO)cc1`: the AC50 is > 10 µM (inactive).
As to `CCN(C[C@H]1[C@H](c2ccccc2)[C@H](CO)N1C(=O)COC)S(C)(=O)=O`, the AC50 was > 10 µM (inactive).
In the case of `O=C(NC[C@@H]1[C@@H](c2ccccc2)[C@H](CO)N1C(=O)C1CCC1)NC1CCCC1`, the AC50 was > 10 µM (inactive).
Regarding `CCC(=O)N1C[C@H]2[C@@H](c3ccccc31)[C@H](CO)N2Cc1ccc(F)cc1`, the AC50 was > 10 µM (inactive).
`O=S(=O)(NC[C@@H]1[C@H](c2ccccc2)[C@@H](CO)N1CC1CC1)c1ccccc1`: the AC50 is > 10 µM (inactive).
Regarding `C[C@@H]1CN([C@@H](C)CO)C(=O)CCCn2nncc2CO[C@@H]1CN(C)Cc1ccc2cccnc2c1`, the AC50 is > 10 µM (inactive).
As to `O=C(NC[C@H]1[C@H](c2ccccc2)[C@@H](CO)N1C(=O)Cc1ccncc1)C1CCC1`, the AC50 is > 10 µM (inactive).
In the case of `COc1ccc(C(=O)N2C[C@@H]3[C@H](c4ccccc42)[C@H](CO)N3C(=O)Cc2ccccn2)cc1`, the AC50 was > 10 µM (inactive).
With `COc1ccc(CN2[C@@H]3CN(C(=O)NC(C)C)c4ccccc4[C@@H]3[C@@H]2CO)cc1`, the AC50 was > 10 µM (inactive).
With `COCCN(C[C@H]1N[C@H](CO)[C@@H]1c1ccccc1)C(=O)NC1CCCC1`, the AC50 is > 10 µM (inactive).
For `C[C@H]1CN([C@@H](C)CO)C(=O)CCCn2nncc2CO[C@H]1CN(C)C(=O)c1ccc2ccn(C)c2c1`, the AC50 is > 10 µM (inactive).
As to `C[C@@H]1CN([C@H](C)CO)C(=O)CCCn2nncc2CO[C@H]1CN(C)Cc1ccccc1C(=O)O`, the AC50 is > 10 µM (inactive).
For the compound `O=C(CC(F)(F)F)N1C[C@@H]2[C@H](c3ccccc31)[C@@H](CO)N2C(=O)C1CCCCC1`, the AC50 was > 10 µM (inactive).
Consider `CC(=O)N1[C@H](CO)[C@H](c2ccccc2)[C@H]1CN(CC(C)C)C(=O)c1ccccn1`, for which the AC50 is > 10 µM (inactive).
In the case of `OC[C@@H]1[C@H](c2ccc(-c3ccc(F)cc3)cc2)[C@@H](CNC2CCCC2)N1CCC(F)(F)F`, the AC50 is > 10 µM (inactive).
In the case of `O=C(NC[C@@H]1[C@H](c2ccccc2)[C@H](CO)N1C(=O)C1CCC1)NC1CCCC1`, the AC50 is > 10 µM (inactive).
As for `C[C@H](CO)N1C[C@H](C)[C@H](CN(C)C(=O)CCC(F)(F)F)OCc2cnnn2CCCC1=O`, the AC50 is > 10 µM (inactive).
As to `O=C(C1CCC1)N1C[C@@H]2[C@H](c3ccccc31)[C@@H](CO)N2C(=O)Nc1cccc(F)c1`, the AC50 was > 10 µM (inactive).
Regarding `O=C(Nc1ccc(F)cc1)N1C[C@@H]2[C@H](c3ccccc31)[C@@H](CO)N2C(=O)c1ccncc1`, the AC50 is > 10 µM (inactive).
The result for `COc1ccc(C(=O)N2C[C@@H]3[C@H](c4ccccc42)[C@@H](CO)N3C(=O)Cc2ccccn2)cc1` reads > 10 µM (inactive); that for `O=C(C1CCOCC1)N1C[C@H]2[C@@H](c3ccccc31)[C@H](CO)N2C(=O)Nc1ccccc1F`, > 10 µM (inactive).
In the case of `CC(=O)N1[C@H](CN(CC(C)C)C(=O)c2ccccn2)[C@@H](c2ccccc2)[C@@H]1CO`, the AC50 was > 10 µM (inactive).
As for `CCC(=O)N1[C@H](CO)[C@H](c2ccc(-c3cccc(OC)c3)cc2)[C@H]1CNC(C)=O`, the AC50 is > 10 µM (inactive).
Take `C[C@H]1CN([C@@H](C)CO)C(=O)CCCn2cc(nn2)CO[C@H]1CN(C)S(=O)(=O)c1ccc(-n2cccn2)cc1`: the AC50 was > 10 µM (inactive).
With `C[C@@H]1CN([C@@H](C)CO)C(=O)CCCn2nncc2CO[C@@H]1CN(C)S(=O)(=O)c1ccccc1C#N`, the AC50 is > 10 µM (inactive).
Regarding `CCCC(=O)N1C[C@@H]2[C@H](c3ccccc31)[C@@H](CO)N2C(=O)Nc1ccc(F)cc1`, the AC50 was > 10 µM (inactive).
Under `O=C(CN1CCOCC1)N1[C@H](CO)[C@@H]2c3ccccc3NC[C@@H]21` stands > 10 µM (inactive).
Under `CNC[C@H]1OCc2cnnn2CCCC(=O)N([C@@H](C)CO)C[C@H]1C` stands > 10 µM (inactive); under `C/C=C/c1ccc([C@@H]2[C@@H](CN(C)C(=O)CC3CC3)N(C(=O)C3CC3)[C@H]2CO)cc1`, > 10 µM (inactive); under `C[C@H]1CN([C@@H](C)CO)C(=O)CCCn2nncc2CO[C@@H]1CN(C)C(=O)Nc1cccc(Oc2ccccn2)c1`, > 10 µM (inactive).
Regarding `CCC(=O)N1C[C@H]2[C@@H](c3ccccc31)[C@H](CO)N2C(=O)CC1CC1`, the AC50 is > 10 µM (inactive).
On to `COc1ccccc1S(=O)(=O)N(C)C[C@H]1OCc2cn(nn2)CCCC(=O)N([C@@H](C)CO)C[C@@H]1C`, for which the AC50 is > 10 µM (inactive).
Under `CCCNC(=O)N1C[C@@H]2[C@H](c3ccccc31)[C@H](CO)N2C(=O)Nc1ccccc1F` stands > 10 µM (inactive); under `CCC(=O)N1C[C@@H]2[C@H](c3ccccc31)[C@@H](CO)N2C(=O)CC1CC1`, > 10 µM (inactive); under `C/C=C/c1ccc([C@@H]2[C@H](CO)N[C@H]2CN(CC)C(=O)CN2CCOCC2)cc1`, > 10 µM (inactive).
The result for `C[C@@H]1CN([C@@H](C)CO)C(=O)CCCn2cc(nn2)CO[C@H]1CN(C)C(=O)Nc1cccc(C(F)(F)F)c1` reads > 10 µM (inactive).
The result for `COc1ccc(CN2[C@@H]3CNc4ccccc4[C@@H]3[C@@H]2CO)cc1` reads > 10 µM (inactive).

Source of the values: PubChem BioAssay AID977614 (Broad Institute, 2014).
